pIC50: −log10 of the molar value.
Assay: In vitro binding affinity against sigma receptor by using [3H]-DTG ([3H]-6) as radioligand in guinea pig cerebellum.

Row | pIC50 | Compound
1 | 8.77 | COc1ccc(CN2CCC3(CCCc4ccccc43)CC2)cc1
2 | 8.26 | Cc1ccc2c(c1)CCCC21CCN(Cc2ccccc2)CC1
3 | 8.17 | Clc1ccc(CN2CCC3(CCCc4ccccc43)CC2)cc1
4 | 8.46 | COc1ccc(CN2CCC3(CCc4ccccc43)CC2)cc1
5 | 8.23 | Cc1ccc(CN2CCC3(CCc4ccccc43)CC2)cc1
6 | 7.85 | O=[N+]([O-])c1ccc(CN2CCC3(CCCc4ccccc43)CC2)cc1
7 | 8.20 | c1csc(CN2CCC3(CCCc4ccccc43)CC2)c1

Second part, the compound before the results:

Row | Compound | pIC50
8 | c1ccc2c(c1)CCCC21CCN(CC2CC2)CC1 | 8.00
9 | c1ccc2c(c1)CCCC21CCN(CC2CCCO2)CC1 (stereo not given) | 8.26
10 | C=CCCN1CCC2(CCCc3ccccc32)CC1 | 8.18
11 | c1ccc(CN2CCC3(CCCCc4ccccc43)CC2)cc1 | 8.17
12 | c1ccc(CCN2CCC3(CCCc4ccccc43)CC2)cc1 | 8.30
13 | c1coc(CN2CCC3(CCCc4ccccc43)CC2)c1 | 8.02
14 | C=CCN1CCC2(CCCc3ccccc32)CC1 | 7.74
15 | CCCCN1CCC2(CCc3ccccc32)CC1 | 8.70
16 | Oc1ccc2c(c1)C1(CCC2)CCN(Cc2ccccc2)CC1 | 7.16
17 | c1ccc(CCN2CCC3(CCc4ccccc43)CC2)cc1 | 8.55
18 | CCCCN1CCC2(CCCCc3ccccc32)CC1 | 8.32
19 | c1ccc(CN2CCC3(CCc4ccccc43)CC2)nc1 | 7.80
20 | CCCCCCN1CCC2(CCCc3ccccc32)CC1 | 8.54
